US20140186329A1, “POLYPHENOL ANALOGS TO TREAT ISCHEMIA” (priority 2011, published 2014)
pEC50: −log10 of the molar value. Where two headings read alike, the source gives them in different places.

Key:
[1] = tested on: HT22 cells; assay: In vitro ischemia assay (HT22 cell IAA assay, MTT); type: cell-based, mouse; settings: for Emax: HT-22, HT22 Cell IAA assay, read-out: Max Protection; for fold improvement of neuroprotective activity/potency relative to Fisetin: in vitro ischemia, HT22/IAA
Description: Cell viability was determined by a modified version of 3-(4,5-dimethylthiazol-2-yl)-2,5-diphenyl tetrazolium bromide (MTT) assay based on the standard procedure (Maher, et al., Brain Research. (2007), supra). Cells were seeded onto 96-well microtiter plates at a density of 5×10^3 cells per well. For the in vitro ischemia assay, the next day, the medium was replaced with DMEM supplemented with 7.5% DFCS and the cells were treated with 20 μM iodoacetic acid (IAA) alone or in the presence of the different derivatives. After 2 hr the medium in each well was aspirated and replaced with fresh medium without IAA but containing the derivatives. 20 hr later, the medium in each well was aspirated and replaced with fresh medium containing 2.5 μg/ml MTT. After 4 hr of incubation at 37° C., the cells were solubilized with 100 μl of a solution containing 50% dimethylformamide and 20% SDS (pH 4.7). The absorbance at 570 nm was measured on the following day with a microplate reader (Molecular Devices). Results were confirmed by visual inspection of the wells. Controls included compound alone to test for toxicity and compound with no cells to test for interference with the assay chemistry.
For a primary screen, an in vitro ischemia model in combination with the HT22 nerve cell line (Maher, et al., Brain Research. (2007) 1173, 117-125) was chosen. […] To induce ischemia in the HT22 cells we used iodoacetic acid (IAA), a well-known, irreversible inhibitor of the glycolytic enzyme glyceraldehyde 3-phosphate dehydrogenase (G3PDH) (Winkler, et al., Exp. Eye Res. (2003) 76, 715-723). IAA has been used in a number of other studies to induce ischemia in nerve cells (Reshef, et al., Neurosci. Lett. (1997) 238, 37-40; Sperling, et al., Neursci. Lett. (2003) 351, 137-140; Rego, et al., Neurochem. Res. (1999) 24, 351-358; Sigalov, et al., J. Mol. Neurosci. (2000) 15, 147-154; and Reiner, et al., Neurosci. Lett. (1990) 119, 175-178), including several recent screens for neuroprotective molecules (Biraboneye, et al., J. Med. Chem. (2009) 52 (14), 4358-4369; Biraboneye, et al., Chem. Med. Chem. (2010) 5 (1), 79-85). The changes following IAA treatment of neural cells are very similar to those seen in animal models of ischemic stroke (Lipton, et al., Physiol. Rev. (1999) 79, 1431-1568) and include alterations in membrane potential (Reiner, et al., Neurosci. Lett. (1990) 119, 175-178), breakdown of phospholipids (Taylor, et al., J. Pharmacol. Exp. Ther. (1996) 276, 1224-1231), loss of ATP (Winkler, et al., Exp. Eye Res. (2003) 76, 715-723; Sperling, et al., Neursci. Lett. (2003) 351, 137-140) and an increase in reactive oxygen species (ROS) (Taylor, et al., J. Pharmacol. Exp. Ther. (1996), supra; and Sperling, et al., Neursci. Lett. (2003) 351, 137-140).
(§1) Cell viability was determined after 24 hr by the MTT assay. The ability to maintain GSH (GSH) was determined by treating HT22 cells with different doses of each derivative (1-10 μM) in the presence of 5 mM glutamate. After 24 hr cell extracts were prepared and analyzed for total GSH. Fisetin (10 μM) was used as a positive control. The ability to induce PC12 cell differentiation (PC 12 diff' n) was determined by treating PC12 cells in N2 medium with different doses of each derivative (1-10 μM) for 24 hr. Differentiation was assessed by visual inspection with Fisetin (10 μM) as a positive control. Anti-inflammatory activity (microglia) was assessed in N9 microglial cells treated with bacterial lipopolysaccharide alone or in the presence different doses of each derivative (1-10 μM) for 24 hr. Fisetin was used as a positive control. TEAC values, a measure of direct antioxidant activity, were determined using the ABTS decolorization assay.
For rapid screening of chemical libraries, a mouse HT22 hippocampal cell death assay induced by addition of the compound iodoacetic acid (IAA) was used. IAA is a well-known, irreversible inhibitor of the glycolytic enzyme glyceraldehyde 3-phosphate dehydrogenase (G3PDH). […]

[2] = tested on: HT22 cells; assay: Maintenance of total GSH in the presence of glutamate; type: cell-based, mouse; settings: derivative 1-10 μM, 5 mM glutamate, 24 hr
Description: Total intracellular glutathione was determined by a chemical assay as described (Maher, P. et al., Free Radical Research. (2006) 40 (10), 1105-1111).
(§2) Three secondary screens allowed assessment of three key activities of Fisetin that are highly relevant to stroke, as well as other neurological disorders: maintenance of glutathione (GSH), the major endogenous cellular antioxidant, inhibition of LPS-induced microglial activation, an indicator of anti-inflammatory activity and PC 12 cell differentiation, a measure of neurotrophic activity. All of these activities are relevant to the nerve cell loss seen in stroke (Gelderblom, et al., Stroke. 2009, 40 (5), 1849-1857; Pandya, et al., Cent. Nerv. Syst. Agents. Med. Chem. (2011) April 27; Lewerenz, et al., J. Neurochem. (2010) 113 (2), 502-504). […] To assess GSH maintenance, total intracellular GSH levels after a 24 hr treatment with the compound both in the absence and presence of glutamate, an inducer of GSH loss and oxidative stress (Tan, et al., Curr. Top. Med. Chem. (2001) 1, 497-506; Maher, et al., Free Radical Research. (2006) 40 (10), 1105-1111) was measured. Inhibition of LPS-induced microglial activation was determined by treating N9 mouse microglial cells with LPS alone and in the presence of the compounds and assaying NO release into the medium 24 hr later (Zheng, et al., Int. Immunopharmacol. (2008) 8, (3), 484-494). PC12 cell differentiation was determined by treating PC12 cells with the compounds and looking at neurite outgrowth after 24 hr. In all cases, Fisetin was used as a positive control (Sagara, et al., J. Neurochem. (2004) 90, 1144-1155).
as §1

[3] = tested on: PC12 cells; assay: PC12 cell differentiation (neurite outgrowth); type: cell-based; settings: N2 medium, derivative 1-10 μM, 24 hr, visual inspection
Description: PC 12 cells in N2 medium were treated with the derivatives (1-10 μM) or Fisetin (10 μM) as a positive control for 24 hr at which time the cells were scored for the presence of neurites. PC12 cells produce neurites much more rapidly when treated in N2 medium than when treated in regular growth medium. For each treatment, 100 cells in each of three separate fields were counted. Cells were scored positive if one or more neurites>1 cell body diameter in length were observed.
as §2, §1

[4] = TEAC, ABTS decolorization assay; settings: relative to Trolox
Description: TEAC values for the flavonoids were determined as described (Maher, P. et al., Free Radical Research. (2006), supra). Briefly, 250 μl of 2,2′-azinobis(3-ethylbenzothiazoline 6-sulfonate) (ABTS) treated overnight with potassium persulfate and diluted to an OD of ˜0.7 at 734 nm was added to 2.5 μl of a derivative solution in ethanol. The change in absorbance due to the reduction of the ABTS radical cation was measured at 734 nm for 4 min. To calculate the TEAC, the gradient of the plot of the percentage inhibition of absorbance vs. concentration for the derivative in question was divided by the gradient of the plot for Trolox.
as §1

[5] = HT22 cells, 20 μM IAA for 2 hr, viability after 24 hr by MTT
[6] = Mus musculus, HT-22, HT22 cells, 20 μM IAA, read-out: HT22 Cell IAA assay EC50
[7] = HT22 cells, 20 μM IAA, read-out: HT22 Cell IAA assay EC50
[8] = Mus musculus, HT-22, HT22 cells, 20 μM IAA for 2 hr, viability after 24 hr by MTT, read-out: EC50 in vitro ischemia

For CCOc1ccc(-c2cc(OC)c3ccccc3n2)cc1OCC [CMS-004, 4-methoxy-2-(3,4-diethoxyphenyl) quinoline], the “EC50 in vitro ischemia (μM)” value [1, 5] was “no”, the “GSH (ability to maintain GSH)” value [2] was “no” and the “PC12 diff'n (ability to induce PC12 cell differentiation)” value [3] was “no”. It also gave a TEAC [4] of 0.12.
With CCOc1ccc(/C=C/C(=O)c2ccc3ccccc3c2O)cc1OCC [CMS-032, (E)-3-(3,4-diethoxyphenyl)-1-(1-hydroxynaphthalen-2-yl)prop-2-en-1-one] the “EC50 in vitro ischemia (μM)” value [1, 5] was “no”, the “GSH (ability to maintain GSH)” value [2] was “no” and the “PC12 diff'n (ability to induce PC12 cell differentiation)” value [3] was “no”. The TEAC [4] was 0.12.
With O=C1/C(=C/c2ccc(O)c(O)c2)Oc2cc(O)ccc21 [PM-014] the pEC50 [1, 6] was 7.31.
For COc1cc(-c2ccc(N3CCCC3)cc2)nc2ccccc12 [CMS-110, 4-methoxy-2-(4-(pyrrolidin-1-yl)phenyl)quinoline], the “EC50 in vitro ischemia (μM)” value [1, 5] was “no”, the “GSH (ability to maintain GSH)” value [2] was “no” and the “PC12 diff'n (ability to induce PC12 cell differentiation)” value [3] was “no”. It also gave a TEAC [4] of 0.27.
In the case of COc1cc(-c2oc3c(ccc4ccccc43)c(=O)c2O)ccc1N1CCCC1 [CMS-139, 3-hydroxy-2-(3-methoxy-4-(pyrrolidin-1-yl)phenyl)-4H-benzo[h]chromen-4-one], the pEC50 [1, 7] was 7.30, the pEC50 [1, 6] was ≥ 7.00 and the Emax ([1]; Mus musculus) was 92%.
With COc1ccc(/C=C/C(=O)c2cc(C)c(C)cc2O)cc1O [CMS-088, (E)-1-(2-hydroxy-4,5-dimethylphenyl)-3-(3-hydroxy-4-methoxyphenyl)prop-2-en-1-one] the pEC50 [1, 8] was 6.70, the “GSH (ability to maintain GSH)” value [2] was “no” and the “PC12 diff'n (ability to induce PC12 cell differentiation)” value [3] was “no”. The TEAC [4] was 0.12.
For COc1cc(-c2ccc(O)cc2O)nc2ccccc12 [CMS-083, 4-methoxy-2-(2,4-dihydroxyphenyl) quinoline], the pEC50 [1, 8] was < 6.30, the “GSH (ability to maintain GSH)” value [2] was “no” and the “PC12 diff'n (ability to induce PC12 cell differentiation)” value [3] was “no”. It also gave a TEAC [4] of 0.05.
In the case of O=c1cc(-c2ccc(N3CCCC3)cc2)oc2c1ccc1ccccc12 [CMS-115, 2-(4-(pyrrolidin-1-yl)phenyl)-4H-benzo[h]chromen-4-one], the pEC50 [1, 8] was 6.70, the “GSH (ability to maintain GSH)” value [2] was “no” and the “PC12 diff'n (ability to induce PC12 cell differentiation)” value [3] was “no”. It also gave a TEAC [4] of 0.03.
With CCOc1ccc(-c2cc(=O)c3cc(C)c(C)cc3o2)cc1OCC [CMS-018, 2-(3,4-diethoxyphenyl)-6,7-dimethyl-4H-chromen-4-one] the “EC50 in vitro ischemia (μM)” value [1, 5] was “no”, the “GSH (ability to maintain GSH)” value [2] was “no” and the “PC12 diff'n (ability to induce PC12 cell differentiation)” value [3] was “no”. The TEAC [4] was 0.15.
For COc1cc(/C=C/C(=O)c2ccc3ccccc3c2O)ccc1OCc1ccccc1 [CMS-063, (E)-3-(4-(benzyloxy)-3-methoxyphenyl)-1-(1-hydroxynaphthalen-2-yl)prop-2-en-1-one], the pEC50 [1, 8] was 6.30, the “GSH (ability to maintain GSH)” value [2] was “no” and the “PC12 diff'n (ability to induce PC12 cell differentiation)” value [3] was “no”. The TEAC [4] was 0.15.
For COc1cc(-c2cc(OC)c3ccccc3n2)ccc1O [CMS-017, 4-methoxy-2-(4-hydroxy, 3-methoxyphenyl) quinoline], the pEC50 [1, 8] was 6.30, the “GSH (ability to maintain GSH)” value [2] was “no” and the “PC12 diff'n (ability to induce PC12 cell differentiation)” value [3] was “no”. The TEAC [4] was 0.15.
COc1cc(/C=C/C(=O)c2ccc3ccccc3c2O)ccc1N1CCCC1 [CMS-137, (E)-1-(1-hydroxynaphthalen-2-yl)-3-(3-methoxy-4-(pyrrolidin-1-yl)phenyl)prop-2-en-1-one] showed a pEC50 [1, 6] of 7.07 and an Emax ([1]; Mus musculus) of 75%.
For COc1cc(-c2oc3cc(C)c(C)cc3c(=O)c2O)ccc1CCl [CMS-078, 2-(4-(chloromethyl)-3-methoxyphenyl)-3-hydroxy-6,7-dimethyl-4H-chromen-4-one], the pEC50 [1, 6] was 6.87.
For CC(C)c1ccc(O)c(C(=O)/C=C/c2ccc(O)c(O)c2)c1 [CMS-129, (E)-3-(3,4-dihydroxyphenyl)-1-(2-hydroxy-5-isopropylphenyl)prop-2-en-1-one], the pEC50 [1, 7] was 7.10, the pEC50 [1, 6] was ≥ 7.00 and the Emax ([1]; Mus musculus) was 81%.
With O=c1cc(-c2ccc(O)c(O)c2)oc2ccccc12 [PM-001] the pEC50 [1, 6] was 6.30 and the “fold improvement of neuroprotective activity/potency relative to Fisetin” value [1] was 6 fold.
O=C(/C=C/c1ccc(N2CCCC2)c(O)c1)c1ccc2ccccc2c1O [CMS-138, (E)-3-(3-hydroxy-4-(pyrrolidin-1-yl)phenyl)-1-(1-hydroxynaphthalen-2-yl)prop-2-en-1-one] gave a pEC50 [1, 6] of 7.15 and an Emax ([1]; Mus musculus) of 72%.
With O=c1cc(-c2ccc(O)c(O)c2)oc2ccc3ccccc3c12 [PM-003] the pEC50 [1, 6] was 7.10 and the “fold improvement of neuroprotective activity/potency relative to Fisetin” value [1] was ~40 fold.
